Reference: patent publication US20250325497A1, “OPHTHALMIC COMPOSITION COMPRISING RESVERATROL FOR TREATING DRY EYE SYNDROME” (Laboratoires THEA, priority 2022, published 2025)

System: reconstituted Human Corneal Epithelium (HCE)
Assay: Preliminary cytotoxicity: modified MTT viability test on reconstituted HCE
Format: cell-based
Details: for MTT: Cellular viability (%): relative to negative control
Description: An initial study on human corneal epithelium (HCE) was conducted to check the cytotoxicity of a selection of tear substitutes in order to further assess their protection against superficial corneal epithelium oxidative stress damages induced by UVA+B light (290-400 nm).
The preliminary cytotoxicity was performed after 4 h acute exposure and after 8 h exposure (repeated twice a day with the final readout the day after; 0.015 J/cm^2) to tear substitutes using 2 assays: MTT test and TUNEL assay.
The preliminary cytotoxicity was tested in vitro for the following tear substitutes: • Composition according to Example I • Visu XL (market reference containing 0.1% Coenzyme Q10, 0.1% cross-linked hyaluronic acid (HA), 0.5% Vitamin E TPGS; pH 6.9) on the HCE model compared to Benzalkonium Chloride (BAK) 0.1% solution (positive control) and saline solution (NaCl 0.9%; negative control).
An EPISKIN reconstituted Human Corneal Epithelium (HCE) of 0.5 cm^2 was used for the evaluation. Epithelial human Immortalized cells (HICEC) were deposed on a polycarbonate filter and cultured at the air-liquid interface for 5 days in a chemically defined medium in order to form a structured epithelium. The inserts containing the tissues at day 5 (thickness: 55 μm; 5.5 cell layers) were shipped at room temperature in a multi-well plate filled with an agarose nutrient solution in which they were embedded.
The HCEs were placed in 6 well plates with 1 mL maintenance medium overnight in incubator CO2 at 37° C. and 90% humidity. The tissues were then used the day after, following acute 4 h exposure and 8 h repeated exposure and overnight protocol. […]
Two exposure protocols were carried on: • acute exposure protocol (4 h): 4 h exposure followed by tissues rinsing • repeated exposure and overnight protocol (8 h+overnight): twice daily exposure, with at least 4 hours between the two treatments and readout after overnight incubation. […]
The Accuracy of the spectro-photometrical measurements are in the range between 0 and 2 OD: <+/−(1%+10 mOD). The Raw data of OD are directly recorded in the Microplate autoreader (TECAN INFINITE M-200) further processed by Software Magellan 6.5.
The mean of blank OD has been subtracted to every single OD value. The viability of each biological replicate has been calculated dividing the respective OD mean for the optical density average of the negative control (NC) Biological Replicates. The viability % mean of tissues treated with the same substance has been calculated. […]
Test substance meets the acceptance criteria if the Standard Deviation value (SD) of the cell viability % (expressed as percentage compared to NC) between the 2 tissue replicates is <18%.

Substance: Benzalkonium Chloride [BAK 0.1%]
- MTT: Cellular viability (%) (4 H acute exposure): 9.98%
- MTT: Cellular viability (%) (8 H+ OVERNIGHT repeated exposure): 0.95%
- Cytotoxicity by MTT test (in words) (4 h acute exposure): severe cytotoxicity
- Cytotoxicity by MTT test (in words) (8 h followed by overnight incubation, cut-off 60% cell viability): severe cytotoxicity
